Reference: US20010048926A1, “SYNTHETIC PEPTIDE VACCINES FOR DENTAL CARIES” (priority 1992, published 2001)

What was measured:
[1] = tested on: inducing peptide construct; assay: ELISA of serum IgG antibody to the inducing (homologous) peptide construct in immunized rats; assay type: in vivo, Sprague Dawley rats; details: for immunogenicity (percentage of animals responding and titer of responding sera): FIG. 1
Experimental: (§1) Immunogenicity of Peptides: Sprague Dawley CD strain 43 day-old male rats (Charles River Laboratories) were used for injection. Six groups of 4-5 rats were injected subcutaneously in the vicinity of the salivary glands with 50 μg each of GGY, AND, SAND or CAT peptide constructs, 10 μg of GTF, or sham-immunized with buffer alone. The initial injection included complete Freund adjuvant (CFA; Difco); two subsequent injections at 21-day intervals included incomplete Freund adjuvant. Animals were bled prior to injection and 14-21 days after each injection. Serum from coagulated and centrifuged blood was stored frozen at −20° C. until use.
(§2) ELISA: Serum IgG and salivary IgA antibodies were tested by enzyme-linked immunosorbent assay (ELISA). Polystyrene microtiter plates (Flow Laboratories) were coated with […] of each peptide construct or 0.5 μg of S. sobrinus GTF. Antibody activity was then measured by incubation with 1:100 to 1:10^6 dilutions of sera, or 1:4 to 1:32 dilutions of saliva. Plates were then developed for IgG antibody rabbit anti-rat IgG followed in sequence by alkaline phosphatase goat anti-rabbit IgG (Biosource Inc.) and p-nitrophenylphosphate (Sigma). A mouse monoclonal reagent to rat α chain (Zymed, South San Francisco, Calif.) was used with biotinylated goat anti-mouse IgG (TAGO, Inc., Burlingame, Calif.) and avidin-alkaline phosphatase (Cappel) to reveal levels of salivary IgA antibody to peptides. Reactivity was recorded as absorbance (A405 nm) in a micro plate reader (Biotek Instruments). Data are reported as absorbance (A405 nm), reciprocal titer, or as ELISA units (EU) which were calculated relative to the levels of appropriate reference sera or salivas from Sprague Dawley rats thrice immunized with the respective peptide construct. Dilutions of 1:12,800 and 1:6,400 (A405 nm approximately 1.0) were considered 100 EU for serum IgG to the GGY and AND constructs, respectively. Dilutions of 1:32 were considered 100 EU for salivary IgA to both GGY and AND constructs.
(§3) Two experiments were performed. Groups (n=11-12) of 23-26 day-old rats were subcutaneously (sc) injected in the salivary gland vicinity with (experiment 1) GGY (50 μg), AND (50 μg) or GTF(10 μg), or phosphate buffered saline (control animals), or (experiment 2) GGY (50 ;μg) or PBS. Each antigen was incorporated with complete Freund adjuvant in both experiments. Eight (experiment 1) or 14 (experiment 2) days later, rats were reinjected with PBS or with the same antigen and dose in incomplete Freund adjuvant. Six (experiment 1) or 12 (experiment 2) days after the second injection, animals were bled from the tail vein, and saliva was collected after injection of pilocarpine (1.0 mg/100 g body weight). Fourteen (experiment 1) or 11 (experiment 2) days after the second injection, all rats were orally infected with approximately 10^8 S. mutans for 3 consecutive days. Both experiments were terminated 63 days after initial infection.
(§4) Two experiments were performed to measure the effect of immunization with the eight-branched GGY and AND peptide constructs on experimental dental caries in the Sprague-Dawley rat. In the first experiment, groups of rats were immunized with GGY or AND peptide constructs. In the second experiment groups of rats were immunized only with the GGY peptide construct. Pre-infection sera and salivas were collected for antibody measurement in 39 day old rats in experiment 1 (6 days after the second injection) and 51 day old rats in experiment 2 (12 days after the second injection). In the GGY-immunized rat groups, IgG antibody levels to GGY (experiment 1=21.9+17.8 EU; experiment 2=108.0±4.0 EU) were elevated above those of the sham-immunized groups (experiment 1=1.7±0.2 EU; experiment 2=4.0±3.0 EU) in both experiments and reached statistical significance (p<0.002) in experiment 2.

[2] = tested on: inducing peptide construct; assay: ELISA of salivary IgA antibody to the inducing (homologous) peptide construct in immunized rats; assay type: in vivo, Sprague Dawley rats; details: for rats with significant levels of salivary IgA antibody: GGY- and AND-injected rats counted together
Experimental: as §1, §2, §3, §4

S. sobrinus GTF [3] = assay: ELISA of serum IgG antibody reacting with intact S. sobrinus GTF; assay type: in vivo; details: 63 day sera, FIG. 3; for IgG antibody reactivity with intact S. sobrinus GTF: n=4-5 per group
Source text: (§5) Glucosyltransferases: Glucosyltransferases (GTF) from S. sobrinus strain 6715 were purified from culture supernatants after bacterial growth in glucose-containing defined media, as described in Taubman et al. (J. Oral Pathol. 17:466-470 (1988)). Enzymes were separated from other culture supernatant proteins by affinity chromatography on Sephadex G-100 (Pharmacia Fine Chemicals), using 6M guanidine HCl as the eluting solvent. GTFs were then obtained from the guanidine HCl eluate by FPLC chromatography on Superose 6 (Pharmacia) using 6M guanidine for elution. GTF preparations contained a mixture of GTF-I, GTF-Sd, and GTF-Si.
as §1, §2

CAT peptide construct = target: T1, CAT peptide construct (Streptococcus mutans serotype c, UniProt P08987); assay: Cross-reactivity ELISA, plates coated with CAT peptide construct; assay type: binding; details: day 63 sera; FIG. 4
T1 construct: residues 442-462 of S. mutans GTF-B; purchased Applied Diagnostics, Foster City, Calif; host or cells: chemical solid phase synthesis
Experimental: as §1
(§6) ELISA: Serum IgG and salivary IgA antibodies were tested by enzyme-linked immunosorbent assay (ELISA). Polystyrene microtiter plates (Flow Laboratories) were coated with […] of each peptide construct or 0.5 μg of S. sobrinus GTF. Antibody activity was then measured by incubation with 1:100 to 1:10^6 dilutions of sera, or 1:4 to 1:32 dilutions of saliva. […] Reactivity was recorded as absorbance (A405 nm) in a micro plate reader (Biotek Instruments). Data are reported as absorbance (A405 nm), reciprocal titer, or as ELISA units (EU) which were calculated relative to the levels of appropriate reference sera or salivas from Sprague Dawley rats thrice immunized with the respective peptide construct. […]

GGY peptide construct = target: T2, GGY peptide construct (Streptococcus mutans serotype c, UniProt P08987); assay: Cross-reactivity ELISA, plates coated with GGY peptide construct; assay type: binding; details: day 63 sera; FIG. 4
T2 construct: GGY and AND were 19-mer peptides; purchased Applied Diagnostics, Foster City, Calif; host or cells: chemical solid phase synthesis
Experimental: as §1, §6

S. sobrinus GTF [4] = assay: Antibody inhibition of glucan synthesis (filter assay, 14C glucose incorporation into water-insoluble glucan); assay type: biochemical, S. sobrinus strain 6715
Source text: as §5
Antibody Inhibition of Glucan Synthesis: Selected rat sera were evaluated for their ability to inhibit glucan synthesis catalyzed by S. sobrinus GTF, using a filter assay. Ten μl volumes of sera (1:100 dilutions in 0.02M sodium phosphate buffered saline and 0.02% sodium azide [PBSA], pH 6.5) were preincubated with the respective GTF for 1 hour at 37° C. in a total volume of 0.04 ml PBSA. Then 1.7 mg sucrose, 44 nCi of [^14C-glucose]-sucrose (approximately 100,000 cpm) were added in 0.2 ml PESA in the presence of 37 μg of dextran T10 (Pharmacia). Incubation proceeded for 18 hours at 37° C., after which water-insoluble glucan was collected on Whatman GF/F glass fiber filters, washed with PBSA, and radioactivity determined as described in Smith et al. (Infect. Immunity 62:5470-5476 (1994)).

S. mutans SJ32 = assay: Protection experiments: caries assessment (modified Keyes method) after S. mutans infection; assay type: in vivo, Sprague-Dawley rats; details: both experiments
Source text: Experimental Protocol for Protection Experiments: Animals used in the present experiments were derived from germ-free Sprague-Dawley rats that had been reared in the isolator facility of Charles River Laboratories, Wilmington, Mass. (Area 051). […] These rats served as initial breeding stock for dams used in these experiments and were regularly monitored for absence of mutans streptococci. The progeny of the dams used for the present experiments were weaned at approximately 21 days and were subsequently fed high sucrose Diet 2000.
as §3
Caries assessment: The extent and depth of carious lesions in all rat molar teeth (caries score) were microscopically evaluated by a modified Keyes method as previously described (Taubman et al., J. Immunol. 118:710-720 (1977)). Caries scores were determined separately on smooth and on sulcal dental surfaces.

AND peptide construct = target: T3, AND peptide construct (Streptococcus mutans serotype c, UniProt P08987); assay: Cross-reactivity ELISA, plates coated with AND peptide construct; assay type: binding; details: day 63 sera; FIG. 4
T3 construct: GGY and AND were 19-mer peptides; purchased Applied Diagnostics, Foster City, Calif; host or cells: chemical solid phase synthesis
T3 sequence (P08987 whole entry, looked up): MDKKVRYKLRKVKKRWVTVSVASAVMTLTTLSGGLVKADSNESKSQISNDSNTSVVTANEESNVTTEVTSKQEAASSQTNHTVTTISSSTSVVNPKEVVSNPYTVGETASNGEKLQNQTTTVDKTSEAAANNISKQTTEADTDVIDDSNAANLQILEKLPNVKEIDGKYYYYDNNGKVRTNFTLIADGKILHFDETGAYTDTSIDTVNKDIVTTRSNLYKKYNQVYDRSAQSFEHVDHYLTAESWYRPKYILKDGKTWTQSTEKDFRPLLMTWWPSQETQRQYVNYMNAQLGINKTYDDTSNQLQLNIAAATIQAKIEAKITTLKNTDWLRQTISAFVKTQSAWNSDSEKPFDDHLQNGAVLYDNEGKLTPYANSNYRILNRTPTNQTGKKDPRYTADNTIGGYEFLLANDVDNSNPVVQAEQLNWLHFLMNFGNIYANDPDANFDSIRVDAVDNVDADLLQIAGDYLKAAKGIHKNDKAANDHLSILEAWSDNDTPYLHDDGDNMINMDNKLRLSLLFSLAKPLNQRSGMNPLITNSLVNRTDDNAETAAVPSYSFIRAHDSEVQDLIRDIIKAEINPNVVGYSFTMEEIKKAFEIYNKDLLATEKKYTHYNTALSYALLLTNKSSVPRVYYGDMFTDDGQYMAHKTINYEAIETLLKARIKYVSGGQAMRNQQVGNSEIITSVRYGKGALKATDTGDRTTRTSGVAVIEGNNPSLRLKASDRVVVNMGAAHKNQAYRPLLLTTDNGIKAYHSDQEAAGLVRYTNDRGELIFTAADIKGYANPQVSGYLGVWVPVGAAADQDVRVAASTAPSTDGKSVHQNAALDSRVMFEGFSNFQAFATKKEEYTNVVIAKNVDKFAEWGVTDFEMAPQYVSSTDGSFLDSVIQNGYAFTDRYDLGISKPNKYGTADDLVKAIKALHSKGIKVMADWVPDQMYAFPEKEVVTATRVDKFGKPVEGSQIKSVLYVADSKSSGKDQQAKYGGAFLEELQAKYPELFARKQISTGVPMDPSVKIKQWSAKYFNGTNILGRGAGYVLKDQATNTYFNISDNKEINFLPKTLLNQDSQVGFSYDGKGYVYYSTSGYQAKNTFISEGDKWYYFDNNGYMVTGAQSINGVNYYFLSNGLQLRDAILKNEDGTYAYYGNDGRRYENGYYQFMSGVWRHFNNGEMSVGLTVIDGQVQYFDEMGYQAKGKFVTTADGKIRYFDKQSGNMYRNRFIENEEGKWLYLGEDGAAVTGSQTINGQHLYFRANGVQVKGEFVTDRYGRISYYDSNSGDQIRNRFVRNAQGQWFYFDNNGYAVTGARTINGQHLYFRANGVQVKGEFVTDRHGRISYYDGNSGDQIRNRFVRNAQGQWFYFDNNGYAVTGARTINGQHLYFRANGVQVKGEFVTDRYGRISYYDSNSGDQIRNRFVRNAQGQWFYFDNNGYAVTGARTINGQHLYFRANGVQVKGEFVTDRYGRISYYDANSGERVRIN
Experimental: as §1, §6

[5] = tested on: experimental dental caries; details: Taubman et al. Infect. Immun. 63:3088-3093 (1995); protocol similar to experiment 1; cited from earlier work
anti-GGY serum = assay: Epitope mapping by ELISA inhibition, anti-GGY serum on GGY-coated plates; assay type: binding, rat; details: anti-GGY serum preincubated with heptamer or intact peptide; FIG. 8
Experimental: Epitope Mapping: B cell epitopes were mapped on the GGY and AND peptides by an ELISA inhibition technique. Anti-GGY or anti-AND sera were preincubated with 13 separate heptamers representing the incremental peptide sequence of the respective peptide, or with intact peptide, followed by the conventional ELISA with intact peptide-coated plates. B cell epitopes were indicated by a significant reduction in absorbance.

[6] = protection experiment 1, pre-infection

## ANDVDNSNPVVQAEQLNWL
[1]; immunogenicity experiment
  immunogenicity (percentage of animals responding and titer of responding sera): at least as high as observed for the positive control CAT peptide
[1]; immunogenicity experiment, day 21 (one injection) vs day 63 (three injections)
  effect of subsequent immunization on serum IgG titers: increased serum IgG titers in all AND-injected rats
[1]; immunogenicity experiment, rats 43 days old at start, 50 μg sc in CFA, day 21
  serum IgG antibody to the inciting antigen after the first injection: induced serum IgG antibody to the inciting antigen after the first injection in all rats
[1]; [6]
  Serum IgG antibody levels to the AND construct: not significantly elevated
[1]; protection experiment 1, weanling rats, two injections eight days apart, bled 14 days after onset (day 39 of life)
  levels of serum IgG antibody (in words): little detectable antibody
[2]; day 21 (one injection)
  rats with significant levels of salivary IgA antibody: 7/9
[2]; day 63 (three injections)
  rats with significant levels of salivary IgA antibody: 8/9
[2]; [6]
  salivary IgA antibody levels to the AND construct: not significantly elevated
S. sobrinus GTF [3]
  IgG antibody reactivity with intact S. sobrinus GTF: significant reactivity with GTF
  GTF reactivity compared with antibody induced by the other peptides: significantly more reactive with GTF
CAT peptide construct
  reaction of serum IgG antibody with the CAT peptide: low but significant reaction
GGY peptide construct
  reaction of antisera with the GGY peptide construct: reaction with antisera induced by AND was observed
S. sobrinus GTF [4]; 63 day sera from injected rats, AND p<0.01, FIG. 5
  inhibition of formation of water-insoluble glucan from sucrose by S. sobrinus GTF (in words): inhibited GTF activity
S. sobrinus GTF [4]; 63 day sera, AND vs CAT p<0.02
  level of inhibitory activity compared with other immunogens: exceeded that observed with sera from rats similarly immunized with CAT
S. mutans SJ32
  mean and median total, smooth surface, and occlusal caries scores vs sham-injected group: lower than the respective scores of the sham-injected group

## CAT: 21-mer peptide containing Asp 451, residues 442-462 of S. mutans GTF-B; positive control (DANFDSIRVDAVDNVDADLLQ) [reference compound]
S. sobrinus GTF [3]
  IgG antibody reactivity with intact S. sobrinus GTF: significant reactivity with GTF
AND peptide construct
  reaction of serum IgG antibody with the AND peptide construct: significant reaction
[5]
  protective effect against experimental dental caries: a significant protective effect was shown

## ANDVDNSNPVVQ [SAND]
[1]; immunogenicity experiment
  immunogenicity (percentage of animals responding and titer of responding sera): weakly immunogenic

## LLANDVD
anti-GGY serum
  inhibition of GGY antibody binding to intact peptide-coated plates: significantly inhibited

## FLLANDV
anti-GGY serum
  inhibition of GGY antibody binding to intact peptide-coated plates: significantly inhibited
